In patent publication US20090137549A1, “Novel compounds useful for the treatment of degenerative & inflamatory diseases” (priority 2006, published 2009):

What follows are compounds tested against PDE1A (Homo sapiens, UniProt P54750) (assay: PDE1A dose response, Cyclic Nucleotide Phosphodiesterase Assay Kit from Biomol (colorimetric)). Conditions: purified PDE1A enzyme, 100 μM cAMP.
Format: biochemical
Source text: For the dose response and further screening, we used the Cyclic Nucleotide
Phosphodiesterase Assay Kit from Biomol, a colorimetric, non-radioactive assay. The basis for the assay is the cleavage of cAMP by PDE1A. The 5′AMP is further cleaved into the nucleoside and phosphate by the enzyme 5′-nucleotidase (catnr KI-307). The phosphate released due to enzymatic cleavage is quantified using BIOMOL GREEN™ reagent (catnr AK-111) in a modified Malachite Green assay^1,2. A PDE1A inhibitor will result in a decrease of the signal.
For the enzymatic reaction a mix of 25 μL with purified PDE1A enzyme, 100 μM cAMP, 5′Nucleotidase and the compound is made in a clear 384-plate. The reaction buffer is Tris 20 mM pH 7.4, 4 μg/mL calmodulin, 3 mM MgCl2, 1.5 mM CaCl2, 0.2 mg/mL BSA and 0.001% Brij-35. After an incubation of 45 minutes at 37° C., the reaction is stopped by the addition of 50 μL BIOMOL GREEN™ reagent. After 30 minutes incubation at room temperature, the readout is performed on the Envision (absorption at 615 nm).
All compounds are tested in duplicate starting from […] followed by a 1/3 serial dilution, 8 points (20 μM-6.67 μM-2.22 μM-740 nM-247 nM-82 nM-27 nM-9 nM) in a final concentration of 1% DMSO. As the positive dose response control compound Vardenafil is used. For the calculation of z′ and PIN values 10 μM Vardenafil is used as positive control (100% inhibition) and 1% DMSO as negative control (0% inhibition).
The following compounds have been or can be prepared according to the synthetic methods described above. For the purpose of Table 7 below, PDE1A activity of each compound, which can be determined using the assay methods described herein, is expressed as follows: […]

IC50 | Structure (SMILES)
101 to 500 nM | O=C(NCCN1CCOCC1)N1CC(c2nc3c(cnn3C3CCCCC3)c(=O)[nH]2)C1 [Example 61, 3-(1-cyclohexyl-4-oxo-4,5-dihydro-1H-pyrazolo[3,4-d]pyrimidin-6-yl)-N-(2-morpholinoethyl)azetidine-1-carboxamide]
101 to 500 nM | O=C(NCCc1c[nH]cn1)N1CC(c2nc3c(cnn3C3CCCCC3)c(=O)[nH]2)C1 [Example 62, N-(2-(1H-imidazol-4-yl)ethyl)-3-(1-cyclohexyl-4-oxo-4,5-dihydro-1H-pyrazolo[3,4-d]pyrimidin-6-yl)azetidine-1-carboxamide]
101 to 500 nM | COc1ccc(OC)c(S(=O)(=O)N2CCCC(c3nc4c(cnn4C4CCCCC4)c(=O)[nH]3)C2)c1 (stereo not shown) [Example 63, 1-cyclohexyl-6-(1-(2,5-dimethoxyphenylsulfonyl)piperidin-3-yl)-1H-pyrazolo[3,4-d]pyrimidin-4(5H)-one]
101 to 500 nM | Cc1nn(C2CCCCC2)c2nc(C3CCCN(C(=O)c4cccc(NS(C)(=O)=O)c4)C3)[nH]c(=O)c12 (stereo not shown) [Example 64, N-(3-(3-(1-cyclohexyl-3-methyl-4-oxo-4,5-dihydro-1H-pyrazolo[3,4-d]pyrimidin-6-yl)piperidine-1-carbonyl)phenyl)methanesulfonamide]
101 to 500 nM | COc1ccccc1C(=O)N1CCCC(c2nc3c(cnn3-c3ccccc3)c(=O)[nH]2)C1 (stereo not shown) [Example 65, 6-(1-(2-methoxybenzoyl)piperidin-3-yl)-1-phenyl-1H-pyrazolo[3,4-d]pyrimidin-4(5H)-one]
101 to 500 nM | COC(=O)c1ccc(C(=O)N2CCCC(c3nc4c(c(C)nn4C4CCCCC4)c(=O)[nH]3)C2)cc1 (stereo not shown) [Example 66, methyl 4-(3-(1-cyclohexyl-3-methyl-4-oxo-4,5-dihydro-1H-pyrazolo[3,4-d]pyrimidin-6-yl)piperidine-1-carbonyl)benzoate]
101 to 500 nM | CN(C)c1ccc(C(=O)N2CCCC(c3nc4c(cnn4-c4ccccc4)c(=O)[nH]3)C2)cc1 (stereo not shown) [Example 67, 6-(1-(4-(dimethylamino)benzoyl)piperidin-3-yl)-1-phenyl-1H-pyrazolo[3,4-d]pyrimidin-4(5H)-one]
101 to 500 nM | COc1cccc(C(=O)N2CCCC(c3nc4c(cnn4-c4ccccc4)c(=O)[nH]3)C2)c1 (stereo not shown) [Example 68, 6-(1-(3-methoxybenzoyl)piperidin-3-yl)-1-phenyl-1H-pyrazolo[3,4-d]pyrimidin-4(5H)-one]
101 to 500 nM | O=C(NC1CC1)N1CC(c2nc3c(cnn3C3CCCCC3)c(=O)[nH]2)C1 [Example 69, 3-(1-cyclohexyl-4-oxo-4,5-dihydro-1H-pyrazolo[3,4-d]pyrimidin-6-yl)-N-cyclopropylazetidine-1-carboxamide]
101 to 500 nM | COc1ccc(S(=O)(=O)N2CCCC(c3nc4c(c(C)nn4C4CCC4)c(=O)[nH]3)C2)cc1 (stereo not shown) [Example 70, 1-cyclobutyl-6-(1-(4-methoxyphenylsulfonyl)piperidin-3-yl)-3-methyl-1H-pyrazolo[3,4-d]pyrimidin-4(5H)-one]
101 to 500 nM | COc1cccc(C(=O)N2CCCC(c3nc4c(c(C)nn4C4CCCCC4)c(=O)[nH]3)C2)c1 (stereo not shown) [Example 71, 1-cyclohexyl-6-(1-(3-methoxybenzoyl)piperidin-3-yl)-3-methyl-1H-pyrazolo[3,4-d]pyrimidin-4(5H)-one]
101 to 500 nM | Cc1nn(C2CCCCC2)c2nc(C3CN(C(=O)c4ccccc4)C3)[nH]c(=O)c12 [Example 72, 6-(1-benzoylazetidin-3-yl)-1-cyclohexyl-3-methyl-1H-pyrazolo[3,4-d]pyrimidin-4(5H)-one]
101 to 500 nM | COC(=O)c1cccc(C(=O)N2CCCC(c3nc4c(c(C)nn4C4CCCCC4)c(=O)[nH]3)C2)c1 (stereo not shown) [Example 73, methyl 3-(3-(1-cyclohexyl-3-methyl-4-oxo-4,5-dihydro-1H-pyrazolo[3,4-d]pyrimidin-6-yl)piperidine-1-carbonyl)benzaate]
101 to 500 nM | Cn1cncc1CNC(=O)N1CC(c2nc3c(cnn3C3CCCCC3)c(=O)[nH]2)C1 [Example 74, 3-(1-cyclohexyl-4-oxo-4,5-dihydro-1H-pyrazolo[3,4-d]pyrimidin-6-yl)-N-((1-methyl-1H-imidazol-5-yl)methyl)azetidine-1-carboxamide]
101 to 500 nM | COc1ccc(S(=O)(=O)N2CCCC(c3nc4c(c(C)nn4-c4ccccc4)c(=O)[nH]3)C2)cc1 (stereo not shown) [Example 75, 6-(1-(4-methoxyphenylsulfonyl)piperidin-3-yl)-3-methyl-1-phenyl-1H-pyrazolo[3,4-d]pyrimidin-4(5H)-one]
101 to 500 nM | O=C(c1ccc2c(c1)OCO2)N1CCCC(c2nc3c(cnn3C3CCCCC3)c(=O)[nH]2)C1 (stereo not shown) [Example 76, 6-(1-(benzo[d][1,3]dioxole-5-carbonyl)piperidin-3-yl)-1-cyclohexyl-1H-pyrazolo[3,4-d]pyrimidin-4(5H)-one]

IC50 | Structure (SMILES)
101 to 500 nM | COc1ccc(C(=O)N2CCCC(c3nc4c(c(C)nn4C4CCCCC4)c(=O)[nH]3)C2)cc1 (stereo not shown) [Example 77, 1-cyclohexyl-6-(1-(4-methoxybenzoyl)piperidin-3-yl)-3-methyl-1H-pyrazolo[3,4-d]pyrimidin-4(5H)-one]
501 to 1000 nM | COc1cccc(C(=O)N2CCCC(c3nc4c(c(C)nn4C4CCC4)c(=O)[nH]3)C2)c1 (stereo not shown) [Example 78, 1-cyclobutyl-6-(1-(3-methoxybenzoyl)piperidin-3-yl)-3-methyl-1H-pyrazolo[3,4-d]pyrimidin-4(5H)-one]
501 to 1000 nM | COc1cccc(S(=O)(=O)N2CCCC(c3nc4c(cnn4C4CCCCC4)c(=O)[nH]3)C2)c1 (stereo not shown) [Example 79, 1-cyclohexyl-6-(1-(3-methoxyphenylsulfonyl)piperidin-3-yl)-1H-pyrazolo[3,4-d]pyrimidin-4(5H)-one]
501 to 1000 nM | Cc1nn(-c2ccccc2)c2nc(C3CCCN(C(=O)c4ccc(N(C)C)cc4)C3)[nH]c(=O)c12 (stereo not shown) [Example 80, 6-(1-(4-(dimethylamino)benzoyl)piperidin-3-yl)-3-methyl-1-phenyl-1H-pyrazolo[3,4-d]pyrimidin-4(5H)-one]
501 to 1000 nM | COc1cccc(C(=O)N2CCCC(c3nc4c(c(C)nn4-c4ccccc4)c(=O)[nH]3)C2)c1 (stereo not shown) [Example 81, 6-(1-(3-methoxybenzoyl)piperidin-3-yl)-3-methyl-1-phenyl-1H-pyrazolo[3,4-d]pyrimidin-4(5H)-one]
501 to 1000 nM | COc1ccccc1C(=O)N1CCCC(c2nc3c(c(C)nn3C3CCC3)c(=O)[nH]2)C1 (stereo not shown) [Example 82, 1-cyclobutyl-6-(1-(2-methoxybenzoyl)piperidin-3-yl)-3-methyl-1H-pyrazolo[3,4-d]pyrimidin-4(5H)-one]
501 to 1000 nM | O=C(N1CCCCC1)N1CC(c2nc3c(cnn3C3CCCCC3)c(=O)[nH]2)C1 [Example 83, 1-cyclohexyl-6-(1-(piperidine-1-carbonyl)azetidin-3-yl)-1H-pyrazolo[3,4-d]pyrimidin-4(5H)-one]
501 to 1000 nM | O=C(NCCN1CCCC1)N1CC(c2nc3c(cnn3C3CCCCC3)c(=O)[nH]2)C1 [Example 84, 3-(1-cyclohexyl-4-oxo-4,5-dihydro-1H-pyrazolo[3,4-d]pyrimidin-6-yl)-N-(2-(pyrrolidin-1-yl)ethyl)azetidine-1-carboxamide]
501 to 1000 nM | Cc1nn(C2CCCCC2)c2nc(C3CN(C(=O)Cc4ccccc4)C3)[nH]c(=O)c12 [Example 85, 1-cyclohexyl-3-methyl-6-(1-(2-phenylacetoyl)azetidin-3-yl)-1H-pyrazolo[3,4-d]pyrimidin-4(5H)-one]
501 to 1000 nM | Cc1ccc(S(=O)(=O)N2CCCC(c3nc4c(c(C)nn4C4CCCCC4)c(=O)[nH]3)C2)cc1 (stereo not shown) [Example 86, 1-cyclohexyl-3-methyl-6-(1-(p-tolylsulfonyl)piperidin-3-yl)-1H-pyrazolo[3,4-d]pyrimidin-4(5H)-one]
501 to 1000 nM | Cc1ccccc1C(=O)N1CCCC(c2nc3c(c(C)nn3C3CCCCC3)c(=O)[nH]2)C1 (stereo not shown) [Example 87, 1-cyclohexyl-3-methyl-6-(1-(2-methylbenzoyl)piperidin-3-yl)-1H-pyrazolo[3,4-d]pyrimidin-4(5H)-one]
501 to 1000 nM | O=C(NCCCN1CCOCC1)N1CC(c2nc3c(cnn3C3CCCCC3)c(=O)[nH]2)C1 [Example 88, 3-(1-cyclohexyl-4-oxo-4,5-dihydro-1H-pyrazolo[3,4-d]pyrimidin-6-yl)-N-(3-morpholinopropyl)azetidine-1-carboxamide]
501 to 1000 nM | Cc1nn(C2CCCCC2)c2nc(C3CCCN(C(=O)c4ccccc4)C3)[nH]c(=O)c12 (stereo not shown) [Example 89, 6-(1-benzoylpiperidin-3-yl)-1-cyclohexyl-3-methyl-1H-pyrazolo[3,4-d]pyrimidin-4(5H)-one]
501 to 1000 nM | COc1ccccc1C(=O)N1CCCC(c2nc3c(c(C)nn3-c3ccccc3)c(=O)[nH]2)C1 (stereo not shown) [Example 90, 6-(1-(2-methoxybenzoyl)piperidin-3-yl)-3-methyl-1-phenyl-1H-pyrazolo[3,4-d]pyrimidin-4(5H)-one]
501 to 1000 nM | Cc1nn(C2CCCCC2)c2nc(C3CCCN(C(=O)c4ccccc4Cl)C3)[nH]c(=O)c12 (stereo not shown) [Example 91, 6-(1-(2-chlorobenzoyl)piperidin-3-yl)-1-cyclohexyl-3-methyl-1H-pyrazolo[3,4-d]pyrimidin-4(5H)-one]
